Counter-ions that a name gives are not always drawn. Like-named read-outs stand apart in the source and are kept apart here. Marks after values point to notes of the source that are not given here.
Experiments:
[1] = Acute toxicity, oral, rats; type: in vivo; details: rat, in vivo, SD rats, read-out: Rats LD₅₀
Procedure: (§1) Numbers of mice (ddY-strain, male, 6-8 weeks age) and rats (SD strain, male, 6-7 weeks age) in each group were 4 and 6, respectively.
(§2) The drug to be tested was orally administered at the dose of 10 ml/kg using an oral probe to the animals which were fasted since one day before (for 16-18 hours). After giving the drug, the animals were returned to the state where both feed and water were available and the general symptom and the dead cases, if any, were checked for two weeks. The drug was suspended in physiological saline solution containing 0.5% of methylcellulose (0.5% MC) and the suspension was given to the animals by oral route.

[2] = tested on: rats (SD strain, male); test: Acute toxicity, oral, rats; type: in vivo; details: observed two weeks
Procedure: as §1, §2

[3] = tested on: male rabbits; test: Action to intra urethral pressure and blood pressure, intravenous administration; type: in vivo; details: i.v.; for Selectivity (B/A): BP(ED30%↑) / IUP(ED150%↑); for ED (30%) / ED (150%): Oryctolagus cuniculus, iv, anesthetized male rabbits; for ED (30%): dose increasing blood pressure to an extent of 30%, read-out: BP(B) [BP(ED30%↑)] (converted); for ED (150%): dose increasing intra urethral pressure to an extent of 150%, read-out: IUP(A) [IUP(ED150%↑)]
Procedure: (§3) The experiment was conducted using male rabbits of body weight of 1.4-3.1 kg under fasted condition. The animals were fixed at backs under uretrane(1.2g/kg s.c.) anesthesia, abdomen was subjected to a midline incision and bladder was exposed. In order to prevent the urine stored in the bladder on the intra urethral pressure, the urine in the bladder was compulsorily discharged out of the body. After that, a catheter was inserted into both ureters and the urine discharged from kidney was introduced outside.
(§4) The intra urethral pressure(IUP) at the urethra tract of about 0.5-1 cm distance from the neck of the bladder was measured using a microtip transducer transducer equipped with a baloon (filled with physiological saline solution) at the top end. Further, polyethylene tube was inserted into femoral artery to measure the blood pressure (BP).
The drug to be tested was injected into the vein of ear every fifteen minutes and the maximum responses of the increasing action of intra urethral pressure tract and of the increasing action of blood pressure were measured at each dose.

[4] = tested on: mice (ddY-strain, male); test: Acute toxicity, oral, mice; type: in vivo; details: observed two weeks
Procedure: as §1, §2

[5] = tested on: smooth muscle of urethra; test: Contraction of isolated smooth muscle of urethra (Magnus vessel, cumulative concentration/response curves); type: cell-based, rabbits; details: for EC50: Oryctolagus cuniculus, female rabbit urethra smooth muscle, contraction
Procedure: (§5) The experiment was conducted using female rabbits of 2 to 3.5 kg body weight.
(§6) The animals were killed by draining the blood out under anesthetizing with pentobarbital (30 mg/kg, by intravenous injection) and smooth muscle of urethra and femoral artery were excised. Each of the excised samples was placed in a Magnus vessel filled with a modified Krebs solution (at 37°C; under mixed gas) and both smooth muscle of urethra and femoral artery were suspended with 1 g load.
(§7) The drug to be tested was accumulated to contract the samples whereby the concentration/response curves were obtained wherefrom ED₅₀ (M) and pD₂ were calculated and the selectivity to urethra was determined.

[6] = tested on: femoral artery; test: Contraction of isolated femoral artery (Magnus vessel, cumulative concentration/response curves); type: cell-based, rabbits; details: Oryctolagus cuniculus, female rabbit femoral artery, contraction
Procedure: as §5, §6, §7

[7] = tested on: male rabbits; test: Action to intra urethral pressure and blood pressure, administration to duodenum; type: in vivo
Procedure: as §3, §4
Abdomen right above stomach was subjected to a midline incision and, after that, the drug to be tested suspended in 0.5% methyl cellulose (0.5% MC) was administered at the dose of 0.5ml/kg to the duodenum. […] The above administration to duodenum corresponded to oral administration as the administration into digestive organ in anethetized animals.

[8] = read-out: ED₅₀ Femoral Artery(B)
[9] = read-out: pD₂ Femoral Artery(B)
[10] = 1 mg/kg i.d., 10 min after administration
[11] = 1 mg/kg i.d., 20 min after administration
[12] = 1 mg/kg i.d., 30 min after administration
[13] = 1 mg/kg i.d., 60 min after administration
[14] = 1 mg/kg i.d., 90 min after administration
[15] = 1 mg/kg i.d., 120 min after administration
[16] = 1 mg/kg i.d., 180 min after administration
[17] = 3 mg/kg i.d., 10 min after administration
[18] = 3 mg/kg i.d., 20 min after administration
[19] = 3 mg/kg i.d., 30 min after administration
[20] = 3 mg/kg i.d., 60 min after administration
[21] = 3 mg/kg i.d., 90 min after administration
[22] = 3 mg/kg i.d., 120 min after administration
[23] = 3 mg/kg i.d., 180 min after administration

## CNC[C@H](O)c1ccc(F)c(NS(C)(=O)=O)c1 [(61B)]
[1]
  LD50 at 336 h: 36.1 mg/kg
[2]; 3 mg/kg
  Rats Dead/ Total: 0 / 6
[2]; 10 mg/kg
  Rats Dead/ Total: 2 / 6
[2]; 30 mg/kg
  Rats Dead/ Total: 1 / 6
[2]; 100 mg/kg
  Rats Dead/ Total: 5 / 6
[2]; 300 mg/kg
  Rats Dead/ Total: 6 / 6

## CNCC(O)c1cc(NS(C)(=O)=O)ccc1Cl (racemic) [(67A), (±)-4'-Chloro-3'-(1-hydorxy-2-methylaminoethyl)methanesulfonanilide hydrochloride, reference compound]
[3]; hydrochloride
  Selectivity (B/A): 4.2
[3]
  ED (30%): 2.93 mg/kg
  ED (150%): 0.7 mg/kg
[1]
  LD50 at 336 h: > 300 mg/kg
[2]; 300 mg/kg
  Rats Dead/ Total: 0 / 6

## CNCC(O)c1cccc(NS(C)(=O)=O)c1 (stereo not drawn) [Amidephrine, reference compound]
[4]; 1000 mg/kg
  Mice Dead/ Total: 0 / 4
[4]; 3000 mg/kg
  Mice Dead/ Total: 3 / 4
[5]; ED₅₀ femoral artery / ED₅₀ urethra
  Selectivity (B/A): 0.18
[5]; read-out: ED₅₀ Urethra(A)
  EC50: 10800 nM
[5]; read-out: pD₂ Urethra(A)
  EC50: 10700 nM
[6]; [8]
  EC50: 1960 nM
[6]; [9]
  EC50: 1950 nM
[7]; [10]
  Change(%) BP: 2.4%
  Change(%) IUP: 0.7%
[7]; [11]
  Change(%) BP: -0.1%
  Change(%) IUP: 0.6%
[7]; [12]
  Change(%) BP: 2.2%
  Change(%) IUP: 8.3%
[7]; [13]
  Change(%) BP: 7.2* %
  Change(%) IUP: 47.6** %
[7]; [14]
  Change(%) BP: 14.3** %
  Change(%) IUP: 56.8** %
[7]; [15]
  Change(%) BP: 10.3* %
  Change(%) IUP: 46.1* %
[7]; [16]
  Change(%) BP: 3.7** %
  Change(%) IUP: 32.1%
[7]; [17]
  Change(%) BP: 5.8%
  Change(%) IUP: -4.5%
[7]; [18]
  Change(%) BP: 3.7%
  Change(%) IUP: 15.9%
[7]; [19]
  Change(%) BP: 4.1%
  Change(%) IUP: 47.1** %
[7]; [20]
  Change(%) BP: 20.7** %
  Change(%) IUP: 108.5** %
[7]; [21]
  Change(%) BP: 34.4** %
  Change(%) IUP: 107.8** %
[7]; [22]
  Change(%) BP: 39.1** %
  Change(%) IUP: 92.7** %
[7]; [23]
  Change(%) BP: 31.1** %
  Change(%) IUP: 92.2** %
[1]
  LD50 at 336 h: 12.4 mg/kg
[2]; 5 mg/kg
  Rats Dead/ Total: 0 / 6
[2]; 10 mg/kg
  Rats Dead/ Total: 3 / 6
[2]; 20 mg/kg
  Rats Dead/ Total: 4 / 6
[2]; 30 mg/kg
  Rats Dead/ Total: 6 / 6

## CS(=O)(=O)Nc1cc(C(O)CN)c(F)cc1F.Cl (racemic) [(63A), (±)-5'-(2-Amino-1-hydroxyethyl)-2',4'-difluoromethanesulfonanilide hydrochloride]
[3]; hydrochloride
  Selectivity (B/A): 2.9
[3]
  ED (30%): 0.19 mg/kg
  ED (150%): 0.065 mg/kg
[1]
  LD50 at 336 h: > 300 mg/kg
[2]; 300 mg/kg
  Rats Dead/ Total: 0 / 6

## C[C@H](N)[C@H](O)c1ccc(F)c(NS(C)(=O)=O)c1 (racemic) [(70A), (±)-erythro-5'-(2-Amino-1-hydroxypropyl)-2'-fluoromethanesulfonanilide hydrochloride]
[3]; hydrochloride
  Selectivity (B/A): 3.6
[3]
  ED (30%): 0.1 mg/kg
  ED (150%): 0.028 mg/kg
[1]
  LD50 at 336 h: > 300 mg/kg
[2]; 300 mg/kg
  Rats Dead/ Total: 2 / 6

## CNC[C@H](O)c1cccc(O)c1 [Phenylephrine]
[5]; read-out: ED₅₀ Urethra(A)
  EC50: 3750 nM
[5]; read-out: pD₂ Urethra(A)
  EC50: 3720 nM
[6]; [8]
  EC50: 480 nM
[6]; [9]
  EC50: 479 nM
[3]
  ED (30%): 0.019 mg/kg
  ED (150%): 0.037 mg/kg

## CS(=O)(=O)Nc1cc(F)cc(C(O)CN)c1.Cl (racemic) [(73A), (±)-3'-(2-Amino-1-hydroxyethyl)-5'-fluoromethanesulfonanilide hydrochloride]
[3]; hydrochloride
  Selectivity (B/A): 3.0
[3]
  ED (30%): 0.081 mg/kg
  ED (150%): 0.027 mg/kg
[1]
  LD50 at 336 h: ~200 mg/kg
[2]; 100 mg/kg
  Rats Dead/ Total: 1 / 6
[2]; 300 mg/kg
  Rats Dead/ Total: 5 / 6

## CS(=O)(=O)Nc1cccc([C@@H](O)CN)c1.Cl [(24B), (R)-(-)-3'-(2-Amino-1-hydroxyethyl)-methanesulfonanilide hydrochloride, reference compound]
[4]; 1000 mg/kg
  Mice Dead/ Total: 0 / 4
[3]; hydrochloride
  Selectivity (B/A): 1.0
[3]
  ED (30%): 0.019 mg/kg
  ED (150%): 0.019 mg/kg
[1]
  LD50 at 336 h: 23.2 mg/kg
[2]; 5 mg/kg
  Rats Dead/ Total: 0 / 6
[2]; 10 mg/kg
  Rats Dead/ Total: 2 / 6
[2]; 30 mg/kg
  Rats Dead/ Total: 4 / 6
[2]; 100 mg/kg
  Rats Dead/ Total: 5 / 6

## CS(=O)(=O)Nc1cccc(C(O)CN)c1.Cl (racemic) [(24A), (±)-3'-(2-Amino-1-hydroxyethyl)methanesulfonanilide hydrochloride, reference compound]
[4]; 1000 mg/kg
  Mice Dead/ Total: 0 / 4
[4]; 3000 mg/kg
  Mice Dead/ Total: 3 / 4
[3]; hydrochloride
  Selectivity (B/A): 1.0
[3]
  ED (30%): 0.036 mg/kg
  ED (150%): 0.035 mg/kg
[1]
  LD50 at 336 h: > 300 mg/kg
[2]; 30 mg/kg
  Rats Dead/ Total: 0 / 6
[2]; 100 mg/kg
  Rats Dead/ Total: 1 / 6
[2]; 300 mg/kg
  Rats Dead/ Total: 1 / 6

## CS(=O)(=O)Nc1ccc(F)c(C(O)CN)c1 (racemic) [(49A), (±)-3'-(2-Amino-1-hydorxyethyl)-4'-fluoromethanesulfonanilide hydrochloride]
[4]; 1000 mg/kg
  Mice Dead/ Total: 0 / 4
[3]
  Selectivity (B/A): 2.2
  ED (30%): 0.044 mg/kg
  ED (150%): 0.02 mg/kg
[1]
  LD50 at 336 h: > 500 mg/kg
[2]; 100 mg/kg
  Rats Dead/ Total: 0 / 6
[2]; 500 mg/kg
  Rats Dead/ Total: 1 / 6

## C[C@H](N)[C@H](O)c1cc(NS(C)(=O)=O)ccc1F (racemic) [(59A), (±)-erythro-3'-(2-Amino-1-hydroxypropyl)-4'-fluoromethanesulfonanilide hydrochloride]
[3]; hydrochloride
  Selectivity (B/A): 1.9
[3]
  ED (30%): 0.083 mg/kg
  ED (150%): 0.044 mg/kg
[1]
  LD50 at 336 h: > 100 mg/kg
[2]; 100 mg/kg
  Rats Dead/ Total: 0 / 6

## CNCC(O)c1cc(NS(C)(=O)=O)c(F)cc1F.Cl (racemic) [(71A), (±)-2',4'-Difluoro-5'-(1-hydroxy-2-methylaminoethyl)methanesulfonanilide hydrochloride]
[3]; hydrochloride
  Selectivity (B/A): 2.1
[3]
  ED (30%): 0.095 mg/kg
  ED (150%): 0.045 mg/kg
[1]
  LD50 at 336 h: > 300 mg/kg
[2]; 300 mg/kg
  Rats Dead/ Total: 0 / 6

## CNCC(O)c1ccc(F)c(NS(C)(=O)=O)c1.Cl (racemic) [(61A), (±)-2'-Fluoro-5'-(1-hydroxy-2-methylaminoethyl)methanesulfonanilide hydrochloride, reference compound]
[3]; hydrochloride
  Selectivity (B/A): 1.2
[3]
  ED (30%): 0.037 mg/kg
  ED (150%): 0.031 mg/kg
[1]
  LD50 at 336 h: > 300 mg/kg
[2]; 300 mg/kg
  Rats Dead/ Total: 0 / 6

## CS(=O)(=O)Nc1ccc(F)c([C@@H](O)CN)c1.O=C(O)C(O)C(O)C(=O)O [(49K), (R)-(-)-3'-(2-Amino-1-hydroxyethyl)-4'-fluoromethanesulfonanilide L-(+)-tartrate]
[4]; 1000 mg/kg
  Mice Dead/ Total: 0 / 4
[4]; 3000 mg/kg
  Mice Dead/ Total: 0 / 4
[3]
  Selectivity (B/A): 6.6
  ED (30%): 0.059 mg/kg
  ED (150%): 0.009 mg/kg
[1]
  LD50 at 336 h: > 1000 mg/kg
[2]; 100 mg/kg
  Rats Dead/ Total: 0 / 6
[2]; 300 mg/kg
  Rats Dead/ Total: 0 / 6
[2]; 500 mg/kg
  Rats Dead/ Total: 2 / 6
[2]; 1000 mg/kg
  Rats Dead/ Total: 1 / 6

Reference: patent EP0538469A1, “SULFONANILIDE DERIVATIVE AND MEDICINE” (NIPPON SHINYAKU COMPANY, LIMITED, priority 1990, dated 1991)
